# Several values for one entry are separate records, joined by “and”; a condition that tells them apart may be missing. Equal values may be shown once.
# How the values were obtained:
# [1] = tested on: NCI-N87 mouse xenograft tumor; test: In vivo efficacy, NCI-N87 mouse xenograft tumor; design: species or system BALB/c nude mice; details: 3 mg/kg; for Tumor volume (mm^3) Day 0: baseline at grouping
# [2] = tested on: Trop2-positive cells BxPC-3 and Trop2-negative HepG2 cells; test: Bystander killing in BxPC-3/HepG2 co-culture assay (BxPC-3:HepG2=2:1); assay type: cell-based, human
# Experimental: After the treatment, the cells were moved to the incubator and incubated for 96 h. After the incubation, cells were digested, and washed once with 1×PBS, then transferred to a flow tube, and centrifuged at 2000 rpm for 3 min. The supernatant was then discarded, and the cell amount and cell viability were detected. […] The cells were washed with 1×PBS, the supernatant was discarded after centrifugation, 200 μL of 5 μg/mL human IgG Fe antibody was added, and the resulting cells were continued to incubate at 4° C. for 30 min after mixing. Finally, the cells were washed with 1×PBS, the supernatant was discarded after centrifugation, and the cells were resuspended in PBS, detected by flow cytometry and analyzed by FlowJo software.
# [3] = tested on: BxPC-3 mouse xenograft tumor; test: In vivo efficacy, BxPC-3 mouse xenograft tumor; design: species or system BALB/c nude mice; details: for T/C (%) / TGI (%) / Tumor volume (mm^3) Day 0 / tumor growth inhibition (in words): 3 mg/kg; for Tumor volume (mm^3) Day 0: baseline at grouping
# Experimental: (§1) I. The logarithmic growth phase BxPC-3 were collected and the cell density was adjusted to 10×10^6 cells/mL with Matrigel buffer (PBS:Matrigel=1:1). 0.2 mL of the prepared BxPC-3 cell suspension was subcutaneously injected into the right scapula of SPF female BALB/c nude mice aged 6-8 weeks.
# II. The tumor diameter was measured with a vernier caliper and the tumor volume was calculated according to the formula V=0.5a×b^2 (where a is the longest diameter of the tumor and b is the shortest diameter of the tumor). […] Animals in each group were administered by tail vein injection, and the control group was given an equal volume of vehicle. […] T/C and TGI values were calculated using tumor volume. The calculation formula is as follows: T/C %=TRTV/CRTV×100% (TRTV: RTV of the treatment group; CRTV: RTV of the vehicle control group). The relative tumor volume (RTV) was calculated based on the results of tumor measurement, and the calculation formula was RTV=Vt/V0, where V0 was the average tumor volume measured at the time of grouping (i.e., D0), Vt was the average tumor volume at one measurement, and TRTV and CRTV took the same day of data.
# 6 days after cell inoculation, when the average tumor volume was about 159 mm^3, animals were randomly divided into vehicle control group, ADC-5 3 mg/kg group, ADC-6 3 mg/kg group, and DS1062a 3 mg/kg group, with 6 animals in each group.
# [4] = tested on: FaDu mouse xenograft tumor; test: In vivo efficacy, FaDu mouse xenograft tumor; design: species or system BALB/c nude mice; details: for Tumor volume (mm^3) Day 0: baseline at grouping
# Experimental: as §1
# II. The tumor diameter was measured with a vernier caliper and the tumor volume was calculated according to the formula V=0.5a×b^2 (where a is the longest diameter of the tumor and b is the shortest diameter of the tumor). […] Animals in each group were administered by tail vein injection, and the control group was given an equal volume of vehicle. The tumor volume of animals in each group was measured twice a week within 35 days after administration, and the tumor volume of animals on day 35 was compared between groups. T/C and TGI values were calculated using tumor volume. The calculation formula is as follows: T/C %=TRTV/CRTV×100% (TRTV: RTV of the treatment group; CRTV: RTV of the vehicle control group). The relative tumor volume (RTV) was calculated based on the results of tumor measurement, and the calculation formula was RTV=Vt/V0, where V0 was the average tumor volume measured at the time of grouping (i.e., D0), Vt was the average tumor volume at one measurement, and TRTV and CRTV took the same day of data.
# The BxPC-3 pancreatic cancer cells in Example 3.3.1 were replaced with human pharyngeal squamous cells carcinoma FaDu, and 10 days after cell inoculation, when the average tumor volume was about 119 mm^3, animals were randomly divided into vehicle control group, […], with 6 animals in each group.
# [5] = tested on: MC38-hTROP2 colon carcinoma; test: In vivo efficacy, MC38-hTROP2 colon carcinoma syngeneic CDX model; design: species or system C57BL/6J mice; details: Table 22, monotherapy 3 mg/kg
# Experimental: Objective: To evaluate the in vivo anti-tumor efficacy of the combination of ADC drug ADC2 with Anti-mPD-1 in mice bearing colon carcinoma Trop2-high CDX model.
# I. MC38-hTROP2 cells (Biocytogen) in exponential growth stage were collected and counted for tumor inoculation. 0.5×10^6 cells in 0.1 mL of PBS were used to subcutaneously inject into the right flank of SPF female C57BL/6J mice aged 6-8 weeks.
# II. 6 days after inoculation, the tumor diameter was measured with a caliper and the tumor volume was calculated according to the formula V=0.5 a×b^2 (wherein a is the long diameter of the tumor and b is the short diameter of the tumor). When the mean tumor volume was about 100-300 mm^3, the mice were randomized into vehicle group, ADC2 3 mg/kg group, DS1062a 3 mg/kg group, Anti-mPD-1 (Bio X cell, 825822J1) 1 mg/kg group, ADC2+Anti-mPD-1 combination group and DS1062a+Anti-mPD-1 combination group. Each group includes 6 mice. The day of first administration is defined as day 0. Mice in the vehicle group were given the solvent of ADC2 and the solvent of Anti-mPD-1 with the same frequency and administration route. The tumor volume of mice in each group was measured twice a week.
# [6] = Table 6, same process as effect example 1.2
substance,measurement,setting,value
DS1062a,Tumor volume (mm^3) Day 32,"[1]; Table 14, single dose",658 mm^3 and 658 ± 43 mm^3
same,T/C (%),"[1]; Table 14, single dose, Day 32",49.98%
same,TGI (%),"[1]; Table 14, single dose, Day 32",60.23%
same,Tumor volume (mm^3) Day 0,"[1]; Table 14, single dose",228 ± 20 mm^3
same,Tumor volume (mm^3) Day 28,[1]; Table 17,255 mm^3 and 255 ± 35 mm^3
same,T/C (%),"[1]; Table 17, Day 28",40.30%
same,TGI (%),"[1]; Table 17, Day 28",84.96%
same,Tumor volume (mm^3) Day 0,[1]; Table 17,188 ± 11 mm^3
same,Tumor volume (mm^3) Day 42,[1]; Table 20,437 mm^3 and 437 ± 89 mm^3
same,T/C (%),"[1]; Table 20, Day 42",35.67%
same,TGI (%),"[1]; Table 20, Day 42",76.58%
same,Tumor volume (mm^3) Day 0,[1]; Table 20,196 ± 14 mm^3
same,tumor growth inhibition (in words),"[1]; effect example 3.1.2, after 32 days",able to significantly inhibit tumor growth
same,tumor growth inhibition (in words),"[1]; effect example 3.2.2, after 28 days",can significantly inhibit NCI-N87 tumor growth
same,tumor growth inhibition (in words),"[1]; effect example 3.3.2, after 42 days",could significantly inhibit tumor growth
same,Amount of cells (10^4) BxPC-3,"[2]; Table 5, 10 nM",12.25 10^4
same,Amount of cells (10^4) HepG2,"[2]; Table 5, 10 nM",144.75 10^4
same,Cell proportion (%) BxPC-3,"[2]; Table 5, 10 nM",7.8%
same,Cell proportion (%) HepG2,"[2]; Table 5, 10 nM",92.2%
same,Number of viable cells (10^4),"[2]; Table 5, 10 nM, whole co-culture",157.0 10^4
same,Amount of cells (10^4) BxPC-3,[2]; [6],12.25 10^4
same,Amount of cells (10^4) HepG2,[2]; [6],144.75 10^4
same,Cell proportion (%) BxPC-3,[2]; [6],7.8%
same,Cell proportion (%) HepG2,[2]; [6],92.2%
same,Number of viable cells (10^4),"[2]; Table 6, same process as effect example 1.2, whole co-culture",157.0 10^4
same,bystander killing effect (in words),[2]; effect example 1.3,had bystander killing effects
same,Tumor volume (mm^3) Day 35,"[3]; Table 13, 3 mg/kg, tail vein injection",847 mm^3 and 847 ± 104 mm^3
same,T/C (%),"[3]; Table 13, Day 35",64.05%
same,TGI (%),"[3]; Table 13, Day 35",40.54%
same,Tumor volume (mm^3) Day 0,"[3]; Table 13, tail vein injection",151 ± 12 mm^3
same,Tumor volume (mm^3) Day 28,"[3]; Table 16, 3 mg/kg",540 mm^3 and 540 ± 74 mm^3
same,T/C (%),"[3]; Table 16, Day 28",58.49%
same,TGI (%),"[3]; Table 16, Day 28",48.52%
same,Tumor volume (mm^3) Day 0,[3]; Table 16,151 ± 12 mm^3
same,Tumor volume (mm^3) Day 42,"[3]; Table 19, 3 mg/kg",302 mm^3 and 302 ± 73 mm^3
same,T/C (%),"[3]; Table 19, Day 42",27.69%
same,TGI (%),"[3]; Table 19, Day 42",84.60%
same,Tumor volume (mm^3) Day 0,[3]; Table 19,159 ± 11 mm^3
same,tumor growth inhibition (in words),"[3]; effect example 3.1.1, compared with the control group",could significantly inhibit tumor growth
same,tumor growth inhibition (in words),"[3]; effect example 3.3.1, after 42 days",could significantly inhibit tumor growth
same,Tumor volume (mm^3) Day 28,"[4]; Table 18, 3 mg/kg",28 mm^3 and 28 ± 14 mm^3
same,T/C (%),"[4]; Table 18, 3 mg/kg, Day 28",1.68%
same,TGI (%),"[4]; Table 18, 3 mg/kg, Day 28",106.11%
same,Tumor volume (mm^3) Day 0,"[4]; Table 18, 3 mg/kg",123 ± 13 mm^3
same,Tumor volume (mm^3) Day 31,"[4]; Table 21, 2 mg/kg",296 mm^3 and 296 ± 125 mm^3
same,T/C (%),"[4]; Table 21, 2 mg/kg, Day 31",15.47%
same,TGI (%),"[4]; Table 21, 2 mg/kg, Day 31",90.15%
same,Tumor volume (mm^3) Day 0,"[4]; Table 21, 2 mg/kg",119 ± 11 mm^3
same,tumor growth inhibition (in words),"[4]; effect example 3.2.3, 3 mg/kg, after 28 days",could significantly inhibit FaDu tumor growth
same,tumor growth inhibition (in words),"[4]; effect example 3.3.3, 2 mg/kg, after 31 days",could significantly inhibit tumor growth
same,TGI (%),[5]; day 28,12.8%
same,Tumor volume (mm^3),"[5]; end day (day 28), mean",1415 mm^3

# Reference: US20260250412A1, “COMBINATION OF ANTIBODY-DRUG CONJUGATE AND ANTI-PD-1 ANTIBODY, AND USE THEREOF” (GENEQUANTUM HEALTHCARE (SUZHOU) CO., LTD., priority 2023, published 2026)
